In US12077636B2 (NISSAN CHEMICAL CORPORATION, priority 2013, dated 2024):

Experiment: Dissolution rate into the solvent
Assay type: physicochemical
Details: compared with α-type:β-type in a range of 98:2 to 85:15

dissolution rate for dissolution into the solvent: slower
SMILES: O=c1n(CC2CO2)c(=O)n(CC2CO2)c(=O)n1CC1CO1 (stereo not shown) [Tris-(2,3-epoxypropyl)-isocyanurate]
